Reference: paper PMC11266668, “Unraveling the mechanism of small molecule induced activation of Staphylococcus aureus signal peptidase IB” (Communications Biology, 2024)
pIC50: −log10 of the molar value. Values joined by “and” are separate entries in the source; they are usually repeats but may differ in a detail not shown here. Equal values may be shown once.

Tests used:
[1] = target: T1, wt SpsB (Staphylococcus aureus, UniProt P0A070); assay: FRET-based signal peptidase assay with membrane-bound SpsB (wt); assay type: biochemical, S. aureus; conditions: for wt A4 (normalized activity): replicates
T1 construct: recombinantly expressed full-length S. aureus SpsB (wt) or mutants; made in house; host or cells: E. coli BL21(DE3)pLysS, membrane fraction
Protocol: (§1) For preparation of E. coli membrane fractions harboring overexpressed S. aureus SpsB, E. coli BL21(DE3) pLysS cells harboring pET-55-DEST-fl-SpsB or respective mutant plasmids (F67A, Y75A, F158A, Q165A, F67A-Y75A, F67A-F158A, Y75A-F158A, F67A-Y75A-F158A) were grown in LB medium (supplemented with Ampicillin (100 µg/mL) and Chloramphenicol (34 µg/mL)) at 37°C (200 rpm) to OD600 ≈ 0.6 and protein overexpression was induced by the addition of isopropyl-1-thio-β-galactopyranoside (IPTG, 0.5 mM). After incubation (22 °C, 200 rpm, 3 h), cells were harvested by centrifugation (6000 × g, 4 °C, 10 min) and subsequently washed with PBS. The cell pellet was resuspended in 5 mL Tris-HCl buffer (50 mM, pH = 7.5) and lysed using a bead beater homogenizer (3 cycles: 5500 rpm for 45 s, 30 s cooling; Precellys Ceramic Kit CK01L, 7.0 mL tubes; Precellys 24 Homogenizer, Bertin Technologies). The lysate was centrifuged (12,000 × g, 4 °C, 10 min) to remove intact cells and debris. Membranes were collected from supernatant (39,000 × g, 4 °C, 75 min) and resuspended in ice-cold sodium phosphate buffer (50 mM, pH 7.5). Protein concentration was measured using the Pierce BCA Protein assay kit (Thermo Fisher Scientific, Pierce Biotechnology) and snap-frozen aliquots were stored at −80 °C.
(§2) Signal cleavage activities of recombinantly expressed full-length S. aureus SpsB (wt) or mutants (F67A, Y75A, F158A, Q165A, F67A-Y75A, F67A-F158A, Y75A-F158A, F67A-Y75A-F158A) in E. coli membranes were measured using a Förster Resonance Energy Transfer (FRET) assay as previously described[20],[36].
A synthetic peptide substrate based on SceD modified by 4-(4- dimethylaminophenylazo)benzoic (DABCYL) acid and 5-((2-aminoethyl)amino)-1- naphthalenesulfonic acid (EDANS) was used (DABCYL-[…]-EDANS, AnaSpec) as FRET substrate. Assays were performed with overexpressed wildtype SpsB (wt) or mutant (F67A, Y75A, F158A, Q165A, F67A-Y75A, F67A-F158A, Y75A-F158A, F67A-Y75A-F158A) in E. coli membranes. As controls for background activity, respective E. coli membranes without IPTG induction were used (see Experimental procedure “Preparation of E. coli membrane (control) fractions. Membranes containing recombinant wildtype SpsB or mutant (50 µg/mL membrane concentration, 100 µL/well final volume, sodium phosphate buffer, 50 mM, pH 7.5, addition of detergent if indicated; final concentrations in buffer: 0.1% CHAPS, 0.001% NP-40 or 0.1% Tween) were pre-treated with PK150, Arylomycin A4 or DMSO as a control (final concentration 1%) at 37 °C for 5 min. After addition of FRET substrate (10 µM final substrate concentration; final DMF concentration from substrate stock 1%), fluorescence turnover was monitored by an Infinite™ M Nano Tecan 200Pro reader (340 nm excitation and 510 nm emission wavelengths, fluorescence top reading mode) at 37 °C for at least 2 h.
The assay was performed in technical triplicates for at least three biologically independent experiments (n ≥ 3). Significance of cleavage activity was determined via a two-tailed Students t-test for comparison of membranes treated with DMSO to PK150.

[2] = target: T2, SpsB F158A mutant (Staphylococcus aureus, UniProt P0A070, F158A); assay: FRET-based signal peptidase assay with membrane-bound SpsB, F158A mutant; assay type: biochemical, S. aureus; conditions: for F158A A4 (normalized activity): replicates
T2 construct: recombinantly expressed full-length S. aureus SpsB (wt) or mutants; made in house; host or cells: E. coli BL21(DE3)pLysS, membrane fraction
T2 sequence (P0A070 1-191 F158A): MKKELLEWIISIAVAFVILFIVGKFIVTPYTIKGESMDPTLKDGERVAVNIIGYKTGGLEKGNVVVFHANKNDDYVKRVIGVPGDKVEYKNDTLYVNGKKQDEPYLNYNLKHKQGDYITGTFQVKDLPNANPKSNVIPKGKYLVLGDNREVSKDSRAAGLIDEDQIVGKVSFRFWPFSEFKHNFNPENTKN
Protocol: Cloning of full-length SpsB (fl-SpsB) was performed using the Invitrogen Gateway Technology in previous works by Le et al.. fl-SpsB was cloned into the destination vector pET-55-DEST (Novagen) and transformed into chemically competent E. coli BL21(DE3)pLysS cells (Promega) to prevent leaky protein overexpression. Plasmid DNA of wildtype SpsB pET-55-DEST-fl-SpsB was purified using a plasmid Miniprep Kit (peqGOLD Plasmid Miniprep Kit II, VWR Peqlab) according to the manufacturer’s instructions and used as template for all single point mutations (F67A, Y75A, F158A, Q165A). For double (F67A-Y75A, F67A-F158A, Y75A-F158A) or triple point (F67A-Y75A-F158A) mutations, the respective pET-55-DEST-fl-SpsB single point mutation or double point mutation plasmids were isolated and used as template for site-directed mutagenesis. Point mutation primers (Sigma) were designed based on the pET-55-dest-fl-SpsB construct according to the manufacturer’s instructions (Agilent). Primer sequences and order of point mutation introduction for all point mutations are listed in Supplementary Table S4. QuikChange site-directed mutagenesis PCR reactions were performed using either Phusion High-Fidelity DNA Polymerase (New England BioLabs, mutations: F67A, Q165A) or Q5 High-Fidelity DNA Polymerase (New England BioLabs, mutations: Y75A, F158A, F67A-Y75A, F67A-F158A, Y75A-F158A, F67A-Y75A-F158A) using the cycle listed below (Supplementary Table S5). The PCR mixture contained 10 µL GC buffer (NEB), 1 µL dNTP mix (10 mM), 1 µL forward primer (10 µM), 1 µL reverse primer (10 µM), 1 µL plasmid template (25 – 50 ng), 1.5 µL DMSO and 1 µL Phusion or Q5 High Fidelity DNA polymerase (NEB) and 33 µL ddH2O.
as §1, §2
A synthetic peptide substrate based on SceD modified by 4-(4- dimethylaminophenylazo)benzoic (DABCYL) acid and 5-((2-aminoethyl)amino)-1- naphthalenesulfonic acid (EDANS) was used (DABCYL-[…]-EDANS, AnaSpec) as FRET substrate. Assays were performed with overexpressed wildtype SpsB (wt) or mutant (F67A, Y75A, F158A, Q165A, F67A-Y75A, F67A-F158A, Y75A-F158A, F67A-Y75A-F158A) in E. coli membranes. […]

`CCC(C)CCCCCCCCC(=O)N(C)[C@H](CO)C(=O)N[C@H](C)C(=O)NCC(=O)N(C)C1C(=O)N[C@@H](C)C(=O)NC(C(=O)O)Cc2ccc(O)c(c2)-c2cc1ccc2O` (some centres unmarked) [Arylomycin A4] was tested, and the “activity observed (comment)” value ([1]; >= 6.25 µM A4, wt) was “no activity observed >= 6.25 µM A4”, the “wt A4 (normalized activity)” value ([1]; A4 0.195uM) was 45.9128 and 47.6989 and 41.1571 and 57.7909 and the “wt A4 (normalized activity)” value ([1]; A4 0.39uM) was 29.005 and 27.5696 and 32.0075 and 46.11. For the same compound, the “wt A4 (normalized activity)” value ([1]; A4 0.78uM) was 22.2989 and 17.0381 and 18.021 and 27.9093, the “wt A4 (normalized activity)” value ([1]; A4 1.5625uM) was 12.8972 and 7.451 and 11.5505 and 15.4289 and the “wt A4 (normalized activity)” value ([1]; A4 3.125uM) was 11.0377 and 3.5503 and 8.876 and 8.105. For the same compound, the “wt A4 (normalized activity)” value ([1]; A4 0,006uM) was 95.8032 and 76.7916 and 108.843, the “wt A4 (normalized activity)” value ([1]; A4 6.25uM) was 6.541 and -3.189 and 3.474 and 4.294 and the “wt A4 (normalized activity)” value ([1]; A4 0,012uM) was 85.1742 and 80.5391 and 106.049. The “wt A4 (normalized activity)” value ([1]; A4 12.5uM) was 6.292, the “wt A4 (normalized activity)” value ([1]; A4 0,024uM) was 82.0951 and 107.605 and 99.2001 and the “wt A4 (normalized activity)” value ([1]; A4 25uM) was 5.273. For the same compound, the “wt A4 (normalized activity)” value ([1]; A4 0,048uM) was 88.089 and 72.2661 and 88.1109, the “wt A4 (normalized activity)” value ([1]; A4 50uM) was 0 and the “wt A4 (normalized activity)” value ([1]; A4 0,097uM) was 68.2227 and 67.6529 and 63.3355 and 86.9713. The pIC50 ([1]; wt) was 6.68, the “activity observed (comment)” value ([2]; >= 6.25 µM A4, F158A) was “no activity observed >= 6.25 µM A4” and the “F158A A4 (normalized activity)” value ([2]; A4 0,39µM) was 32.4463 and 49.9171 and 42.4421 and 52.4288. The “F158A A4 (normalized activity)” value ([2]; A4 0,78µM) was 16.172 and 26.1385 and 26.2791 and 38.6178, the “F158A A4 (normalized activity)” value ([2]; A4 0,006µM) was 114.109 and 96.9597 and 113.52 and the “F158A A4 (normalized activity)” value ([2]; A4 0,012µM) was 105.97 and 95.3486 and 96.5076. The “F158A A4 (normalized activity)” value ([2]; A4 0,024µM) was 106.863 and 85.3442 and 101.455, the “F158A A4 (normalized activity)” value ([2]; A4 25uM) was 1.625 and the “F158A A4 (normalized activity)” value ([2]; A4 0,049µM) was 49.0532 and 88.7486 and 79.7833 and 90.4487. For the same compound, the “F158A A4 (normalized activity)” value ([2]; A4 50uM) was 0, the “F158A A4 (normalized activity)” value ([2]; A4 0,097µM) was 43.0655 and 77.8288 and 72.5853 and 85.1042 and the “F158A A4 (normalized activity)” value ([2]; A4 0,195µM) was 35.3889 and 69.8941 and 59.8004 and 66.9013. For the same compound, the “F158A A4 (normalized activity)” value ([2]; A4 3,125µM) was 9.135 and 8.856 and 10.0772 and 7.1542, the “F158A A4 (normalized activity)” value ([2]; A4 6,25µM) was 5.328 and 0 (3×) and the “F158A A4 (normalized activity)” value ([2]; A4 12,5uM) was 3.344. For the same compound, the “F158A A4 (normalized activity)” value ([2]; A4 1,5626µM) was 13.3342 and 20.0153 and 23.1869 and 21.923 and the pIC50 ([2]; F158A mutant) was 6.64.
For `C[S+](C)[O-]` [DMSO], the “wt DMSO + 0.001% NP-40 norm. value” ([1]; 0.001% NP-40, normalized to DMSO + 0.001% NP-40 (100), single biological replicates) was 144.811 and 130.505, the “wt DMSO + 0.01% Tween norm. value” ([1]; 0.01% Tween, normalized to DMSO + 0.01% Tween (100), single biological replicates) was 133.237 and 138.302 and the “wt DMSO + 0.1% Chaps norm. value” ([1]; 0.1% Chaps, normalized to DMSO + 0.1% Chaps (100), single biological replicates) was 187.838 and 176.739.
